In patent US7718614B2 (Kurume University, priority 2003, dated 2010):

Experiments:
HRPC patients = experiment: Combination therapy by dose of estramustine phosphate, Example 3; format: in vivo, human
PBMCs [1] = experiment: Immunosuppression during combination therapy, Example 2; conditions: half dose (280 mg/day) with the peptide
PBMCs [2] = experiment: Monitoring of estramustine-induced immunosuppression (IFN-γ production of PBMCs to PHA, EBV-peptide and vaccinated peptides), Example 1
[3] = estramustine 140 mg/day combined with peptide vaccination, 4 cases
[4] = estramustine 280 mg/day combined with peptide vaccination, 32 cases
[5] = estramustine 560 mg/day combined with peptide vaccination, 5 cases

For `C[C@]12CC[C@@H]3c4ccc(OC(=O)N(CCCl)CCCl)cc4CC[C@H]3[C@@H]1CC[C@@H]2OP(=O)(O)O` [estramustine phosphate, Estramustine phosphate], the “Clinical Response, number of PD” value (HRPC patients; [3]) was 3, the “Clinical Response, number of SD” value (HRPC patients; [3]) was 1 and the “Response, Cellular Immunity” value (HRPC patients; [3]) was 3/4. The “Response, Humoral Immunity” value (HRPC patients; [3]) was 4/4, the “Clinical Response, number of PD” value (HRPC patients; [4]) was 12PD and the “Clinical Response, number of PR” value (HRPC patients; [4]) was 10PR,. The “Clinical Response, number of SD” value (HRPC patients; [4]) was 10SD,, the “Response, Cellular Immunity” value (HRPC patients; [4]) was 23/31 and the “Response, Humoral Immunity” value (HRPC patients; [4]) was 27/32. For the same compound, the “Clinical Response, number of PD” value (HRPC patients; [5]) was 5PD, the “Response, Cellular Immunity” value (HRPC patients; [5]) was 0/3 and the “Response, Humoral Immunity” value (HRPC patients; [5]) was 1/2. The Immunosuppression (PBMCs [1]) was “no significant immunosuppression in most cases”, the Immune suppression (PBMCs [2]; full dose (560 mg/day) with peptide vaccination, cases 2 and 3, recovered on discontinuing) was “severe immune suppression” and the Immune suppression (PBMCs [2]; half/low dose (280 mg/day) with the peptide, 8 cases tested) was “no significant immune suppression”.
